# In patent publication US20260274887A1, “SALT FORM AND POLYCRYSTALLINE FORM OF ALLOPREGNANOLONE DERIVATIVE, PREPARATION METHOD THEREFOR, AND USE THEREOF” (priority 2023, published 2026):
# Where two headings read alike, the source gives them in different places.
# Legend:
# [1] = Interconversion between crystalline forms (slurry of two forms, DSC); assay type: physicochemical; details: room temperature, 3 days
# Procedure: Samples of two different crystalline forms were mixed and dissolved in a corresponding solvent of 5 mL, and the mixture was stirred at room temperature for 3 days and separated by centrifugation. The resulting solid was dried in vacuum at 40 ° C. The dried product was subjected to a DSC test to determine the composition of the crystalline form.
# [2] = Solubility of different salt forms in water (HPLC of supernatant); details: for Solubility at 25° C. / Solubility at 37° C.: purified water, 24 h; for solubility at 24 h: water, thermodynamic from solid
# Procedure: The system was stirred in a water bath at 25° C. In addition, the same system was prepared by the same method and stirred at 37° C. After 24 h, the supernatant was taken for HPLC analysis.
# [3] = Hygroscopic weight gain experiment (Chinese Pharmacopoeia 2020 hygroscopicity guideline); assay type: physicochemical; details: for Hygroscopic weight gain: 25° C.±1° C. and 80%±2% RH
# Procedure: Table 1 below is the definition and range of hygroscopicity for a drug after equilibration at 25° C.±1° C. and 80%±2% RH in Guidelines for Hygroscopicity Trials for Pharmaceuticals (Chinese Pharmacopoeia, 2020 Edition, Volume IV, page 485).
# The strong hygroscopicity of a drug will seriously affect the flowability of the drug and even affect the stability of the drug. Therefore, according to the present application, a hygroscopic weight gain experiment was conducted on different salt forms of compound 1 as per the method described in Guidelines for Hygroscopicity Trials for Pharmaceuticals (Chinese Pharmacopoeia, 2020 Edition, Volume IV).
# [4] = DVS profile (moisture sorption) of crystalline forms; assay type: physicochemical
# [5] = Stability of crystalline form I and II (HPLC purity; XRPD and DSC crystalline form); assay type: physicochemical
# [6] = as above; assay type: physicochemical; remark: listed apart in the source
# From the text: Samples were taken on day 0, day 10, and day 30 for XRPD and DSC detections to evaluate the physical stability and for HPLC purity detection to evaluate the chemical stability.
# [7] = assay type: physicochemical
# [8] = in the human body; cited from earlier work
compound,measurement,setting,value
Cl.[2H]C(C)(C)[C@H](N)C(=O)O[C@@H]1CC[C@@]2(C)[C@@H](CC[C@@H]3[C@@H]2CC[C@]2(C)[C@@H](C(C)=O)CC[C@@H]32)C1 [Crystalline form IV],Final crystalline form,[1]; n-heptane 5 ml,crystalline form IIL
Cc1ccc(S(=O)(=O)O)cc1.[2H]C(C)(C)C(N)C(=O)OC1CCC2(C)C(CCC3C2CCC2(C)C(C(C)=O)CCC32)C1 (stereo not drawn),Solubility at 25° C.,[2],810 µg/mL
same,Solubility at 37° C.,[2],890 µg/mL
same,Hygroscopic weight gain,[3],0%
O=C(O)CC(O)C(=O)O.[2H]C(C)(C)C(N)C(=O)OC1CCC2(C)C(CCC3C2CCC2(C)C(C(C)=O)CCC32)C1.[2H]C(C)(C)C(N)C(=O)OC1CCC2(C)C(CCC3C2CCC2(C)C(C(C)=O)CCC32)C1 [L-Malate],Solubility at 25° C.,[2],1400 µg/mL
same,Solubility at 37° C.,[2],2110 µg/mL
same,Hygroscopic weight gain,[3],4.0%
Cl.[2H]C(C)(C)[C@H](N)C(=O)O[C@@H]1CC[C@@]2(C)[C@@H](CC[C@@H]3[C@@H]2CC[C@]2(C)[C@@H](C(C)=O)CC[C@@H]32)C1 [Crystalline form II],DVS weight gain,[4]; relative humidity 50%,about 4%
same,"Purity, High humidity (RH 92.5%)",[5]; day 5,99.39%
same,"Purity, High temperature (60° C.)",[5]; day 5,99.28%
same,"Purity, Illumination (4500 ± 500 Lux)",[5]; day 5,99.57%
same,"Purity, Illumination (4500 ± 500 Lux)",[5]; day 10,99.68%
same,"Purity, High humidity (RH 92.5%)",[5]; day 30,99.37%
same,"Purity, High temperature (60° C.)",[5]; day 30,97.03%
same,Final crystalline form,[1]; isopropyl acetate 5 ml,crystalline form I
same,"Purity, High humidity (RH 92.5%)",[6]; day 0,99.59%
same,"Purity, High temperature (60° C.)",[6]; day 0,99.59%
same,"Purity, Illumination (4500 ± 500 Lux)",[6]; day 0,99.59%
same,"Purity, High humidity (RH 92.5%)",[6]; day 10,99.65%
same,"Purity, High temperature (60° C.)",[6]; day 10,98.93%
same,"Purity, Illumination (4500 ± 500 Lux)",[6]; day 30,99.20%
O=P(O)(O)O.[2H]C(C)(C)C(N)C(=O)OC1CCC2(C)C(CCC3C2CCC2(C)C(C(C)=O)CCC32)C1.[2H]C(C)(C)C(N)C(=O)OC1CCC2(C)C(CCC3C2CCC2(C)C(C(C)=O)CCC32)C1 (stereo not drawn) [Phosphate],Hygroscopic weight gain,[3],4.9%
Cl.[2H]C(C)(C)[C@H](N)C(=O)O[C@@H]1CC[C@@]2(C)[C@@H](CC[C@@H]3[C@@H]2CC[C@]2(C)[C@@H](C(C)=O)CC[C@@H]32)C1 [Hydrochloride],"HPLC purity, High humidity/RH 92.5%",[7]; day 0,100%
same,"HPLC purity, High temperature/60° C.",[7]; day 0,100%
same,"HPLC purity, Illumination/4500 ± 500 Lux",[7]; day 0,100%
same,"HPLC purity, High humidity/RH 92.5%",[7]; day 7,99.89%
same,"HPLC purity, High temperature/60° C.",[7]; day 7,99.89%
same,"HPLC purity, Illumination/4500 ± 500 Lux",[7]; day 7,99.89%
same,"HPLC purity, High humidity/RH 92.5%",[7]; day 14,99.89%
same,"HPLC purity, High temperature/60° C.",[7]; day 14,99.88%
same,"HPLC purity, Illumination/4500 ± 500 Lux",[7]; day 14,99.89%
same,solubility at 24 h,[2]; 25 °C,22700 µg/mL
same,solubility at 24 h,[2]; 37 °C,46400 µg/mL
same,Hygroscopic weight gain,[3],0.2%
"CC(=O)[C@H]1CC[C@H]2[C@@H]3CC[C@H]4C[C@H](O)CC[C@]4(C)[C@H]3CC[C@]12C [allopregnanolone, 3α-OH-5α-pregnan-20-one]",plasma half-life,[8],about 45 minutes
Maleate,Solubility at 25° C.,[2],730 µg/mL
same,Solubility at 37° C.,[2],1120 µg/mL
same,Hygroscopic weight gain,[3],0%
Cl.[2H]C(C)(C)[C@H](N)C(=O)O[C@@H]1CC[C@@]2(C)[C@@H](CC[C@@H]3[C@@H]2CC[C@]2(C)[C@@H](C(C)=O)CC[C@@H]32)C1 [Crystalline form I],DVS weight gain,[4]; relative humidity 90%,1.2%
same,"Purity, High humidity (RH 92.5%)",[5]; day 5,99.72%
same,"Purity, High temperature (60° C.)",[5]; day 5,99.78%
same,"Purity, Illumination (4500 ± 500 Lux)",[5]; day 5,99.78%
same,"Purity, Illumination (4500 ± 500 Lux)",[5]; day 10,99.82%
same,"Purity, High humidity (RH 92.5%)",[5]; day 30,99.78%
same,"Purity, High temperature (60° C.)",[5]; day 30,99.64%
same,"Purity, High humidity (RH 92.5%)",[6]; day 0,99.77%
same,"Purity, High temperature (60° C.)",[6]; day 0,99.77%
same,"Purity, Illumination (4500 ± 500 Lux)",[6]; day 0,99.77%
same,"Purity, High humidity (RH 92.5%)",[6]; day 10,99.82%
same,"Purity, High temperature (60° C.)",[6]; day 10,99.77%
same,"Purity, Illumination (4500 ± 500 Lux)",[6]; day 30,99.65%
same,Hygroscopicity (summary statement),[3]; summary of the polymorph comparison,non-hygroscopic
"[2H]C(C)(C)[C@H](N)C(=O)O[C@@H]1CC[C@@]2(C)[C@@H](CC[C@@H]3[C@@H]2CC[C@]2(C)[C@@H](C(C)=O)CC[C@@H]32)C1 [Compound 1, L-valine-3-d, (3α,5α)-3-hydroxy-pregnan-20-one-3-yl ester]",solubility at 24 h,[2]; 25 °C,10 µg/mL
same,Solubility at 37° C.,[2],Not detected
Cl.[2H]C(C)(C)[C@H](N)C(=O)O[C@@H]1CC[C@@]2(C)[C@@H](CC[C@@H]3[C@@H]2CC[C@]2(C)[C@@H](C(C)=O)CC[C@@H]32)C1 [Crystalline form III],Final crystalline form,[1]; isopropyl acetate 5 ml,crystalline form I
CC(=O)O [Acetate],Hygroscopic weight gain,[3],0.4%
C1=Cc2cccc(OC[C@H]3CNCCO3)c2C1.O=S(=O)(O)c1ccccc1 [Benzenesulfonate],Hygroscopic weight gain,[3],0.2%
